SMILES strings stand for the structures.

One series deals with Plutella xylostella. In words: Insecticidal test against Plutella xylostella. The following applies: 500 ppm drug solution, Chinese cabbage seedlings with eggs immersed about 30 sec, six days after immersion, 25° C.
For series [1], the system named is Frankliniella occidentalis. In words: Insecticidal test against Frankliniella occidentalis. As to conditions: 500 ppm drug solution sprayed on Phaseolus vulgaris leaf pieces with hatched larvae, four days after treatment.
A further series deals with Dirofilaria immitis. As to the kind of experiment: Influence evaluation test on the growth of Dirofilaria immitis. Format: cell-based. The following applies: 168 h, read-out: development inhibition rate from the L3 stage larva to the L4-stage larva.
For a further series, the system named is Laodelphax striatellus. As to the kind of experiment: Insecticidal test against Laodelphax striatellus. As to conditions: 500 ppm drug solution, rice seedlings immersed 30 seconds, three-instar insects, eight days after inoculation.

Regarding `O=C(Nc1ccccc1)C1=C(O)CC(c2ccc(C(F)(F)F)cc2)OC1=O` (centres unmarked) [1-6], the “rating of assessment (corrected mortality) against Plutella xylostella” value (shortened to “rating … against Plutella xylostella”) in the series with Plutella xylostella was “D or higher”.

Turning to `O=C(Nc1ccc(F)cn1)C1=C(O)CC(c2ccc(C(F)(F)F)cc2)OC1=O` (centres unmarked) [1-77], the “rating … against Plutella xylostella” value in the series with Plutella xylostella is recorded as “D or higher”. In addition, the “rating of assessment (corrected mortality) against Frankliniella occidentalis” value (“rating … against Frankliniella occidentalis” for short) in series [1] is “D or higher”.

For `O=C(Nc1ccc(F)cc1)C1=C(O)CC(c2ccc([N+](=O)[O-])cc2)OC1=O` (centres unmarked) [1-107], in the series on Plutella xylostella, the “rating … against Plutella xylostella” value is on record as “D or higher”.

Turning to `O=C(Nc1ccc(F)cc1)C1=C(O)CC(c2ccc3c(c2)OCO3)OC1=O` (centres unmarked) [1-103], in the series on Plutella xylostella, the “rating … against Plutella xylostella” value is reported as “D or higher”.

On to `O=C(NC1CC1)C1=C(O)CC(c2ccc(C(F)(F)F)cc2)OC1=O` (centres unmarked) [1-74], for which, in the series on Plutella xylostella, the “rating … against Plutella xylostella” value is on record as “D or higher”.

Consider `CC1(C)C(O)=C(C(=O)Nc2ccc(F)cc2)C(=O)OC1c1ccc(C(F)(F)F)cc1` (centres unmarked) [1-22], for which, in the series with Plutella xylostella, the “rating … against Plutella xylostella” value is recorded as “D or higher”.

Turning to `O=C(Nc1ccc(F)cc1)C1=C(O)CC(c2ccc(SC(F)(F)F)cc2)OC1=O` (centres unmarked) [1-135], the “rating … against Plutella xylostella” value in the series on Plutella xylostella is recorded as “D or higher”.

Take `N#Cc1ccc(C2CC(O)=C(C(=O)Nc3ccc(F)cc3)C(=O)O2)cc1` (centres unmarked) [1-97]: the “rating … against Plutella xylostella” value with Plutella xylostella is on record as “D or higher”.

For the compound `O=C(Nc1cccs1)C1=C(O)CC(c2ccc(C(F)(F)F)cc2)OC1=O` (centres unmarked) [1-7], the “rating … against Plutella xylostella” value in the series with Plutella xylostella was “D or higher”.

For the compound `COc1ccccc1C1CC(O)=C(C(=O)Nc2ccc(F)cc2)C(=O)O1` (centres unmarked) [1-131], the “rating … against Plutella xylostella” value in the series with Plutella xylostella was “D or higher”.

As to `O=C1OC(c2ccc(C(F)(F)F)cc2)C2(CCCCC2)C(O)=C1C(=S)Nc1ccc(F)cc1` (centres unmarked) [1-68, N-(4-fluorophenyl)-5-hydroxy-3-oxo-1-(4-(trifluoromethyl)phenyl)-2-oxaspiro[5.5]undec-4-en-4-carbothioamide], the inhibition (in general, the share of the control response that was lost under treatment) at 10 µM in the series with Dirofilaria immitis is no less than 50%.

For the compound `O=C(Nc1ccc(F)cc1)C1=C(O)CC(c2ccc(C(F)(F)F)c(Cl)c2)OC1=O` (centres unmarked) [1-1, 6-(3-chloro-4-(trifluoromethyl)phenyl)-N-(4-fluorophenyl)-4-hydroxy-2-oxo-5,6-dihydro-2H-pyran-3-carboxamide], the inhibition at 10 µM in the series with Dirofilaria immitis was no less than 50%. Further, the “rating … against Plutella xylostella” value in the series on Plutella xylostella is listed as “D or higher”.

As for `CC1(C)C(O)=C(C(=S)Nc2ccc(F)cn2)C(=O)OC1c1ccc(C(F)(F)F)cc1` (centres unmarked) [1-71], the “rating of assessment (corrected mortality) against Laodelphax striatellus” value (“rating … against Laodelphax striatellus” below) with Laodelphax striatellus is listed as “D or higher”.

On to `O=C(Nc1ccc(F)cn1)C1=C(O)CC(c2ccc(C(F)(F)F)nc2)OC1=O` (centres unmarked) [1-76], for which the “rating … against Plutella xylostella” value in the series on Plutella xylostella is “D or higher”. For the same compound, the “rating … against Laodelphax striatellus” value in the series on Laodelphax striatellus is “D or higher”.

On to `Cc1ccc(NC(=O)C2=C(O)CC(c3ccc(C(F)(F)F)cc3)OC2=O)cc1` (centres unmarked) [1-73], for which the “rating … against Plutella xylostella” value in the series with Plutella xylostella is given as “D or higher”.

With `CSc1ccc(C2CC(O)=C(C(=O)Nc3ccc(F)cc3)C(=O)O2)cc1` (centres unmarked) [1-83], the “rating … against Plutella xylostella” value with Plutella xylostella is on record as “D or higher”.

For the compound `O=C(Nc1ccc(Oc2ccccc2)cc1)C1=C(O)CC(c2ccc(C(F)(F)F)cc2)OC1=O` (centres unmarked) [1-14], in the series with Plutella xylostella, the “rating … against Plutella xylostella” value is listed as “D or higher”.

As for `O=C(Nc1ccc(F)cc1)C1=C(O)CC(c2ccc(C(F)(F)F)nc2)OC1=O` (centres unmarked) [1-21], the “rating … against Plutella xylostella” value in the series with Plutella xylostella is listed as “D or higher”. The “rating … against Laodelphax striatellus” value with Laodelphax striatellus was “D or higher”. Further, the “rating … against Frankliniella occidentalis” value in series [1] is recorded as “D or higher”.

Take `O=C(Nc1ccc(F)cc1)C1=C(O)CC(c2ccc(OC(F)(F)F)cc2)OC1=O` (centres unmarked) [1-86]: the “rating … against Plutella xylostella” value in the series on Plutella xylostella is “D or higher”.

With `O=C(Nc1ccc(Cl)cc1)C1=C(O)CC(c2ccc(C(F)(F)F)cc2)OC1=O` (centres unmarked) [1-5], the “rating … against Plutella xylostella” value in the series with Plutella xylostella is “D or higher”.

Consider `C[S+]([O-])c1ccc(C2CC(O)=C(C(=O)Nc3ccc(F)cc3)C(=O)O2)cc1` (centres unmarked) [1-84], for which the “rating … against Plutella xylostella” value with Plutella xylostella was “D or higher”.

With `COc1ccc(NC(=S)C2=C(O)CC(c3ccc(C(F)(F)F)cc3)OC2=O)cc1` (centres unmarked) [1-31], in the series on Plutella xylostella, the “rating … against Plutella xylostella” value is “D or higher”.

Regarding `O=C(Nc1ccc2c(c1)OCO2)C1=C(O)CC(c2ccc(C(F)(F)F)cc2)OC1=O` (centres unmarked) [1-15], in the series with Plutella xylostella, the “rating … against Plutella xylostella” value is “D or higher”.

On to `O=C(Nc1ccc(F)cc1)C1=C(O)CC(c2cc(-c3ccccc3)no2)OC1=O` (centres unmarked) [1-78], for which the “rating … against Plutella xylostella” value in the series on Plutella xylostella is given as “D or higher”.

As for `O=C(Nc1ccc(F)cc1)C1=C(O)CC(c2ccc(Cl)nc2)OC1=O` (centres unmarked) [1-75], in the series with Plutella xylostella, the “rating … against Plutella xylostella” value was “D or higher”. The “rating … against Laodelphax striatellus” value with Laodelphax striatellus is recorded as “D or higher”. For the same compound, the “rating … against Frankliniella occidentalis” value in series [1] is on record as “D or higher”.

`CS(=O)(=O)c1ccc(C2CC(O)=C(C(=O)Nc3ccc(F)cc3)C(=O)O2)cc1` (centres unmarked) [1-85]: the “rating … against Plutella xylostella” value in the series with Plutella xylostella was “D or higher”.

On to `COc1ccccc1C1CC(O)=C(C(=O)Nc2ccc(SC(F)(F)F)cc2)C(=O)O1` (centres unmarked) [1-132], for which, in the series on Plutella xylostella, the “rating … against Plutella xylostella” value is on record as “D or higher”.

For the compound `CC1(C)C(O)=C(C(=S)Nc2ccc(F)cc2)C(=O)OC1c1ccc(C(F)(F)F)cc1` (centres unmarked) [1-67], the “rating … against Plutella xylostella” value with Plutella xylostella was “D or higher”.
